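Results reflect a 48-hour exposure of cells in 96-well plates to compound at five concentrations. Here, GI50 denotes the concentration required for 50% inhibition of growth.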 Calls of active or inactive are those of the source. Cut-off read from the data, not from the text of the source: active = GI50 up to about 1.1 µM and inactive = higher.
Columns and labels:
Assay in all cases: NCI tumour cell line growth inhibition, 48 h
[1] = tested on: HCC 2998
[2] = tested on: SK-MEL-2
[3] = tested on: KM12
[4] = tested on: HOP-92
[5] = tested on: 786-0
[6] = tested on: OVCAR-4
[7] = tested on: ACHN
[8] = tested on: SNB-75
[9] = tested on: UACC-257
[10] = tested on: SW-620
[11] = tested on: RXF 393
[12] = tested on: OVCAR-5
[13] = tested on: SNB-19
[14] = tested on: SF-295
[15] = tested on: CCRF-CEM
[16] = tested on: LOX IMVI
[17] = tested on: SF-539

Measured: GI50

CCOc1ccc(/C=C2/C(=O)N=C(N)N=C2N)cc1OCC
inactive: [1] > 100 µM | [2] > 100 µM | [3] > 100 µM | [4] > 100 µM | [5] > 100 µM | [6] > 100 µM | [7] > 100 µM | [8] > 100 µM | [9] > 100 µM | [10] > 100 µM | [11] > 100 µM | [12] > 100 µM | [13] > 100 µM | [14] > 100 µM | [15] > 100 µM | [16] > 100 µM

Cc1ccccc1N(CCC#N)C1=NN(C(=O)CC(=O)Nc2ccccc2)C(c2ccccc2)C1 (stereo not drawn)
inactive: [1] > 100 µM | [2] > 100 µM | [3] > 100 µM | [4] > 100 µM | [5] > 100 µM | [6] > 100 µM | [7] > 100 µM | [8] 35 µM | [9] > 100 µM | [10] > 100 µM | [11] > 100 µM | [12] > 100 µM | [13] > 100 µM | [14] > 100 µM | [15] > 100 µM | [17] > 100 µM

CCCCOC(=O)C1C(c2ccc(Cl)cc2)NC(c2ccc(Cl)cc2)C(C(=O)OCCCC)S1(=O)=O (stereo not drawn)
inactive: [1] > 100 µM | [2] > 100 µM | [3] > 100 µM | [4] > 100 µM | [5] > 100 µM | [6] > 100 µM | [7] > 100 µM | [8] > 100 µM | [9] > 100 µM | [10] > 100 µM | [11] > 100 µM | [12] > 100 µM | [13] > 100 µM | [14] > 100 µM | [15] > 100 µM | [16] > 100 µM | [17] > 100 µM

COc1c(O)ccc(/C=N/NC(=S)NCOCCOC(C)=O)c1OC
inactive: [1] > 100 µM | [2] > 100 µM | [3] > 100 µM | [4] > 100 µM | [5] > 100 µM | [6] > 100 µM | [7] > 100 µM | [8] > 100 µM | [9] > 100 µM | [10] > 100 µM | [11] > 100 µM | [12] > 100 µM | [13] > 100 µM | [14] > 100 µM | [15] > 100 µM | [16] > 100 µM | [17] > 100 µM

CCOC1=C2N=C(C(CC)c3ccccc3F)N=C2C(=O)c2ccccc21 (stereo not drawn)
inactive: [1] > 100 µM | [2] > 100 µM | [3] > 100 µM | [4] 95.7 µM | [5] > 100 µM | [6] > 100 µM | [7] > 100 µM | [8] 25.4 µM | [9] > 100 µM | [10] > 100 µM | [11] 2.98 µM | [13] > 100 µM | [14] > 100 µM | [15] > 100 µM | [17] > 100 µM

c1ccc2cc(C3NCCc4nc[nH]c43)ccc2c1 (stereo not drawn)
inactive: [1] 59.6 µM | [2] 72.8 µM | [3] 17.3 µM | [4] 49.3 µM | [5] 41.3 µM | [6] 57 µM | [7] 23.5 µM | [8] 46.2 µM | [9] 26.7 µM | [10] 61.8 µM | [11] 61.1 µM | [12] > 100 µM | [14] 68.5 µM | [15] 35.6 µM | [16] 71.6 µM | [17] 89.1 µM

N#CCCn1[nH]c(=O)c(Cl)c(Cl)c1=O
inactive: [1] 13.1 µM | [2] 14.7 µM | [3] 14.5 µM | [4] 6.21 µM | [5] 18.7 µM | [6] 18 µM | [7] 17 µM | [8] 13.2 µM | [9] 18.9 µM | [10] 17.8 µM | [11] 17.1 µM | [12] 18.8 µM | [13] 15.4 µM | [14] 18.1 µM | [16] 15 µM | [17] 23.3 µM

NNC(=O)N/N=C1\C(=O)N(c2ccc(Cl)c(Cl)c2)C(=O)C(=O)C1c1nc2ccccc2s1 (stereo not drawn)
inactive: [1] > 100 µM | [2] > 100 µM | [3] > 100 µM | [4] > 100 µM | [5] > 100 µM | [6] > 100 µM | [7] > 100 µM | [8] > 100 µM | [9] > 100 µM | [10] > 100 µM | [11] 38.5 µM | [13] > 100 µM | [14] > 100 µM | [15] 50.2 µM | [17] > 100 µM

CCN1C[C@]2(C)CC[C@H](OC)C34C1C([C@H](OC(C)=O)[C@@H]32)[C@@]1(OC)C[C@H](OC)[C@H]2C[C@@H]4[C@@H]1[C@H]2O
inactive: [1] > 100 µM | [2] > 100 µM | [3] > 100 µM | [4] > 100 µM | [5] > 100 µM | [6] > 100 µM | [7] > 100 µM | [8] > 100 µM | [9] > 100 µM | [10] 54.2 µM | [11] > 100 µM | [12] > 100 µM | [13] > 100 µM | [14] > 100 µM | [15] > 100 µM | [16] > 100 µM | [17] > 100 µM

COc1ccc(/C=C2\CCC(C)(CN(C)C)C2=O)cc1 (stereo not drawn)
inactive: [1] > 100 µM | [2] > 100 µM | [3] > 100 µM | [4] > 100 µM | [5] > 100 µM | [6] > 100 µM | [7] > 100 µM | [8] > 100 µM | [9] > 100 µM | [10] > 100 µM | [11] > 100 µM | [12] > 100 µM | [13] 6.18 µM | [14] > 100 µM | [16] > 100 µM | [17] > 100 µM

N=C1OC(c2ccc3c(c2)OCO3)C(NNS(=O)(=O)c2ccccc2)=C1O (stereo not drawn)
inactive: [1] > 100 µM | [2] 68.2 µM | [3] > 100 µM | [4] > 100 µM | [5] > 100 µM | [6] > 100 µM | [7] > 100 µM | [8] > 100 µM | [9] > 100 µM | [10] > 100 µM | [11] > 100 µM | [12] > 100 µM | [13] > 100 µM | [14] > 100 µM | [15] 44.6 µM | [16] > 100 µM | [17] > 100 µM

CSc1nnc(C(C#N)C#N)nn1
inactive: [1] > 100 µM | [3] > 100 µM | [4] > 100 µM | [5] > 100 µM | [6] > 100 µM | [8] > 100 µM | [9] > 100 µM | [10] > 100 µM | [11] > 100 µM | [12] > 100 µM | [13] > 100 µM | [14] > 100 µM | [15] > 100 µM | [16] > 100 µM | [17] > 100 µM
